In patent publication US20100120715A1, “BETA-LACTAMASE INHIBITORS” (priority 2007, published 2010):
Like-named read-outs stand apart in the source and are kept apart here.

How the values were obtained:
Class A ESBL SHV-5 = biological target: T1, Class A ESBL SHV-5 (Klebsiella pneumoniae, UniProt P0A3M1); assay type: biochemical, E. coli; details: nitrocefin 100 μM, PBS pH 7.0, read-out: SHV-5 IC50 Range
T1 construct: made in house; host or cells: E. coli BL21(DE3) for purified enzyme; E. coli cells containing SHV-5 for extracts

Class C P99 AmpC = biological target: T2, Class C P99 AmpC (Enterobacter cloacae, UniProt P05364); assay type: biochemical; details: purified enzyme; nitrocefin 100 μM, PBS pH 7.0; read-out: P99 AmpC IC50 Range
T2 construct: made in house; host or cells: E. coli BL21(DE3)
Method in brief: (§1)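 Native untagged enzymes were expressed in E. coli BL21(DE3) and purified by cation exchange and gel filtration. Compound series (100–0.005 μM in PBS pH 7.0, before addition of an equal enzyme volume) were preincubated with enzyme 10 min at 37°C. Nitrocefin (100 μM final) hydrolysis was read kinetically at 486 nm for 10 min, and IC50 was taken as 50% reduction of initial rate versus no-inhibitor wells.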

Class A ESBL CTXM-15 = biological target: T3, Class A ESBL CTXM-15 (Escherichia coli, UniProt Q9EXV5); assay: β-lactamase enzyme inhibition (nitrocefin hydrolysis), CTXM-15; assay type: biochemical; details: purified enzyme; nitrocefin 100 μM, PBS pH 7.0; read-out: CTXM-15 IC50 Range
T3 construct: made in house; host or cells: E. coli BL21(DE3)
Method in brief: as §1

[1] = system: E. cloacae expressing the Class C P99+ AmpC; assay: microbe, parasite or virus in culture; assay type: cell-based; details: in the presence of fixed 8 μg/mL Ceftazidime
From the text: (§2) To determine the ability of test compounds to potentiate the inhibition of the growth of bacterial strains producing beta-lactamase enzymes, classic cell based screening assays were employed. Four bacteria strains producing beta-lactamase enzymes were used: K. pneumoniae expressing the Class A Extended Spectrum Beta-Lactamase (ESBL) CTX-M-15, E. coli expressing the Class A ESBL SHV-5, E. cloacae expressing the Class C P99+, and K. pneumoniae expressing the Class A carbapenemase KPC-2. In order to evaluate the ability of test compounds to inhibit beta-lactamase activity, Applicants used a modification of the broth microdilution assay. The assay was conducted in Cation Adjusted Mueller Hinton Broth (CAMHB, BD # 212322, BD Diagnostic Systems, Sparks, Md.). Bacteria strains were grown for 3-5 hours in CAMBH broth. All four strains were grown in presence of 50 μg/mL ampicillin to ensure resistance is maintained. In the meantime, test compounds were diluted in DMSO to a 0.1 mg/mL stock. The compounds were added to a microtiter plate and were diluted in 2-fold serial dilutions in CAMHB in a final concentration range of 8 μg/mL to 0.015 μg/ml. An overlay of CAMHB containing a cephalosporin was added to the compounds at a final static concentration of 8 μg/ml. […] Each of these compound plates are made in quadruplicate, one for each bacteria strain. In addition to the titration of test compounds the MICs of a panel of cephalosporins is also tested to ensure the strains are behaving consistently from test to test. Once the test compound and cephalosporin are added the plates can be inoculated. Inocula are conducted according to CLSI broth microdilution method. After inoculation the plates are incubated for 16-20 hours at 37° C. then the Minimal Inhibitory Concentration (MIC) of the test compound is determined visually.

[2] = system: K. pneumoniae expressing the Class A carbapenemase KPC-2; assay: microbe, parasite or virus in culture; details: in the presence of fixed 8 μg/mL Ceftazidime
[3] = system: K. pneumoniae expressing the Class A ESBL CTX-M-15; assay: microbe, parasite or virus in culture; assay type: cell-based; details: in the presence of fixed 8 μg/mL Ceftazidime
[4] = biological target: T4, Class A carbapenemase KPC-2 (Klebsiella pneumoniae, UniProt Q9F663); assay: β-lactamase enzyme inhibition (nitrocefin hydrolysis), KPC-2; assay type: biochemical; details: purified enzyme; nitrocefin 100 μM, PBS pH 7.0; read-out: KPC-2 IC50 Range
T4 construct: made in house; host or cells: E. coli BL21(DE3)
Method in brief: as §1

[5] = system: E. coli expressing the Class A ESBL SHV-5; assay: microbe, parasite or virus in culture; assay type: cell-based; details: in the presence of fixed 8 μg/mL Ceftazidime
From the text: as §2

[6] = cellular extracts of E. coli containing SHV-5 (Examples 2-30)
[7] = purified beta-lactamase enzyme (Examples 1 and 31-64)

T2 sequence (P05364 21-381): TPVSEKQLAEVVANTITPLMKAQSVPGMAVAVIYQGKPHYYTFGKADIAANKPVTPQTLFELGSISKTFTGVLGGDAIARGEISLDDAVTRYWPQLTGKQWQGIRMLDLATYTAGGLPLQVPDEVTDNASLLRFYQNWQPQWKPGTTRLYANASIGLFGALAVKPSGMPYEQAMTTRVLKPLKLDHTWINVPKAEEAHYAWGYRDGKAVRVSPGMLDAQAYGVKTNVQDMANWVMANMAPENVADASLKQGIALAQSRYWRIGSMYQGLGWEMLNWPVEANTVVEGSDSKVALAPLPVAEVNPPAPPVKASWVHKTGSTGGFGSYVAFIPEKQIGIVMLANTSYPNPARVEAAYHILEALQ
T4 sequence (Q9F663 25-293 limits assumed): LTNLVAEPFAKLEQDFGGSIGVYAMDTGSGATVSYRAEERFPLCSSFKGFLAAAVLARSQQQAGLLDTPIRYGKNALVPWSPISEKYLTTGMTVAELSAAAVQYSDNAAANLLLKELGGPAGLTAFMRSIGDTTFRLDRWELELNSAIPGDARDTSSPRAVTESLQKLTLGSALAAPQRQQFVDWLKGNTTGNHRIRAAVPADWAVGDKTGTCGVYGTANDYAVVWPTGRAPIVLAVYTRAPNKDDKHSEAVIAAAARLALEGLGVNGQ
T3 sequence (Q9EXV5 entry or part of it): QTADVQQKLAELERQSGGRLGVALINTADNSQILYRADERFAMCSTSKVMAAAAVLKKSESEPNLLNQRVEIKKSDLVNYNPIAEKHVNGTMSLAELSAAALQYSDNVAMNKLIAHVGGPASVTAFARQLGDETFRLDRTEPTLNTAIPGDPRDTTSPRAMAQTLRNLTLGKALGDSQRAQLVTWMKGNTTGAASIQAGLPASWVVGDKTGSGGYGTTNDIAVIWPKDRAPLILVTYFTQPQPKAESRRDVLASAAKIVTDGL
T1 sequence (P0A3M1 22-286): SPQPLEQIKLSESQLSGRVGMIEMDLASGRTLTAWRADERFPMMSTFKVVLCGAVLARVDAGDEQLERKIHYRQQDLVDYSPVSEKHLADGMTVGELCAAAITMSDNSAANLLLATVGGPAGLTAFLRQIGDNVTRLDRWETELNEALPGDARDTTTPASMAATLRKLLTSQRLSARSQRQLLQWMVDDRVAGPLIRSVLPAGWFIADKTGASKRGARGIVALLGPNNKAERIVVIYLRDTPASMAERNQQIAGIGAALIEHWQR

SMILES	IC50 (Class A ESBL SHV-5; [6]) [nM]	IC50 (Class C P99 AmpC) [nM]	IC50 (Class A ESBL CTXM-15) [nM]	MIC of example compound, E. cloacae P99 AmpC + 8 μg/mL CAZ [1]	MIC of example compound, K. pneumoniae KPC-2 + 8 μg/mL CAZ [2]	MIC of example compound, K. pneumoniae CTX-M-15 + 8 μg/mL CAZ [3]	IC50 [4] [nM]	MIC of example compound, E. coli SHV-5 + 8 μg/mL CAZ [5]	IC50 (Class A ESBL SHV-5; [7]) [nM]
O=C(Cc1cccs1)N[C@@H](Cc1ccc(C(=O)O)cc1O)B(O)O [Example 2, (1R)-1-(2-thiophene-2-yl-acetylamino)-2-(2-hydroxy-4-carboxyphenyl)ethyl-1-boronic acid]	10 to 100	100 to 1000	100 to 1000	A (A represents an MIC >8 μg/mL)					
O=C(CCC(=O)c1cccs1)N[C@@H](Cc1cccc(C(=O)O)c1O)B(O)O [Example 5, (1R)-1-(4-Oxo-4-thiophen-2-yl-butyrylamino)-2-(2-hydroxy-3-carboxyphenyl)ethyl-1-boronic acid]	< 10	< 10	< 10	C (C represents an MIC of <1 μg/mL)	C (C represents an MIC of <1 μg/mL)	C (C represents an MIC of <1 μg/mL)			
O=C(N[C@@H](Cc1cccc(C(=O)O)c1O)B(O)O)c1cccs1 [Example 11, (1R)-1-(thiophene-2-carbonyl-amino)-2-(2-hydroxy-3-carboxyphenyl)ethyl-1-boronic acid]	10 to 100	< 10	< 10	C (C represents an MIC of <1 μg/mL)	C (C represents an MIC of <1 μg/mL)	C (C represents an MIC of <1 μg/mL)			
O=C(N[C@@H](Cc1cccc(C(=O)O)c1O)B(O)O)c1ccccc1 [Example 13, (1R)-1-Benzoylamino-1-(3-carboxy-2-hydroxy)benzyl-methylboronic acid]	10 to 100	< 10	10 to 100	C (C represents an MIC of <1 μg/mL)	C (C represents an MIC of <1 μg/mL)	C (C represents an MIC of <1 μg/mL)	< 10		
CC(C)C(=O)N[C@@H](Cc1cccc(C(=O)O)c1O)B(O)O [Example 14, (1R)-1-Isobutyrylamino-1-(3-carboxy-2-hydroxy)benzyl-methylboronic acid]	100 to 1000	< 10	10 to 100	C (C represents an MIC of <1 μg/mL)	C (C represents an MIC of <1 μg/mL)	C (C represents an MIC of <1 μg/mL)			
O=C(O)c1cccc(C[C@H](NC(=O)C2CCCC2)B(O)O)c1O [Example 15, (1R)-1-Cyclopentanecarbonylamino-(3-carboxy-2-hydroxy)benzyl-methylboronic acid]	100 to 1000	< 10	10 to 100	C (C represents an MIC of <1 μg/mL)	C (C represents an MIC of <1 μg/mL)	C (C represents an MIC of <1 μg/mL)			
COc1cccc(C(=O)N[C@@H](Cc2cccc(C(=O)O)c2O)B(O)O)c1 [Example 29, (1R)-1-(3-methoxybenzoylamino)-2-(2-hydroxy-3-carboxyphenyl)ethyl-1-boronic acid]	10 to 100	< 10	< 10		C (C represents an MIC of <1 μg/mL)	C (C represents an MIC of <1 μg/mL)	< 10	C (C represents an MIC of <1 μg/mL)	
NCCC(=O)N[C@@H](Cc1cccc(C(=O)O)c1O)B(O)O.O=CO [Example 38, (1R)-1-(3-aminopropanoylamino)-2-(2-hydroxy-3-carboxyphenyl)ethyl-1-boronic acid formate salt]		100 to 1000	100 to 1000		C (C represents an MIC of <1 μg/mL)	A (A represents an MIC >8 μg/mL)	100 to 1000	A (A represents an MIC >8 μg/mL)	> 1000
NCc1cccc(C(=O)N[C@@H](Cc2cccc(C(=O)O)c2O)B(O)O)c1.O=CO [Example 42, (1R)-1-(3-aminomethyl)-benzoylamino-1-(3-carboxy-2-hydroxy)benzyl-methyl boronic acid formate]		< 10	< 10	C (C represents an MIC of <1 μg/mL)	C (C represents an MIC of <1 μg/mL)		10 to 100		100 to 1000
O=C(O)c1cccc(C[C@H](NC(=O)c2c(Cl)cccc2Cl)B(O)O)c1O [Example 43, (1R)-1-(2,6-Dichlorobenzoyl)-amino-1-(3-carboxy-2-hydroxy)benzyl-methylboronic acid]		< 10	10 to 100		A (A represents an MIC >8 μg/mL)	A (A represents an MIC >8 μg/mL)	10 to 100	A (A represents an MIC >8 μg/mL)	> 1000
O=C(Cc1cccnc1)N[C@@H](Cc1cccc(C(=O)O)c1O)B(O)O.O=CO [Example 59, (1R)-1-(3-Pyridylacetylamino)-2-(2-hydroxy-3-carboxyphenyl)ethyl-1-boronic acid formate salt]		< 10	< 10		C (C represents an MIC of <1 μg/mL)	C (C represents an MIC of <1 μg/mL)	< 10	C (C represents an MIC of <1 μg/mL)	< 10
O=C(O)c1cccc(C[C@H](NC(=O)[C@@H]2CCCN2)B(O)O)c1O.O=CO [Example 64, (1R),(2′S)-1-(pyrrolidine-2-carbonylamino)-2-(2-hydroxy-3-carboxyphenyl)ethyl-1-boronic acid formate]		10 to 100	100 to 1000		C (C represents an MIC of <1 μg/mL)	A (A represents an MIC >8 μg/mL)	100 to 1000	A (A represents an MIC >8 μg/mL)	> 1000
